Tests used:
[1] = tested on: hyper-permeable E. coli 901C; experiment: Broth microdilution MIC assay; type: cell-based; conditions: Escherichia coli, read-out: E. coli 901C MIC
Outline: (§1)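 Two-fold serial dilutions tested per CLSI in cation-supplemented Mueller-Hinton broth against S. aureus ATCC 29213 and hyper-permeable E. coli 901C; inoculum 5×10^5 CFU/mL from 3-5 h log-phase culture. Incubated 16-20 h at 37° C; MIC read visually as lowest concentration with no growth.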

S. aureus ATCC 29213 = experiment: Broth microdilution MIC assay; type: cell-based; conditions: Staphylococcus aureus, ATCC29213; broth microdilution, 16-20 hours at 37° C.; read-out: S. aureus 29213 MIC
Outline: as §1

[2] = tested on: E. coli DH5α/pLBII-CTX-M15; experiment: Broth microdilution MIC assay, engineered strain producing CTX-M15; type: cell-based, Escherichia coli; conditions: Escherichia coli, read-out: E. coli DH5α/pLBII-CTX-M15 Microbiological Activity (MIC)
Outline: (§2)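 CLSI broth microdilution in cation-supplemented Mueller-Hinton broth, 2-fold compound dilutions, 5×10^5 CFU/mL inoculum, 16-20 h at 37° C, MIC read visually as lowest concentration without growth. E. coli DH5α carries CTX-M15 on pLBII under Lac promoter, or empty pLBII as control.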

[3] = target: T1, PBP3 from Escherichia coli (Escherichia coli, UniProt P0AD68); experiment: Fluorescence polarization competition binding assay with Bocillin-FL
T1 construct: made in house
T1 sequence (P0AD68 1-577): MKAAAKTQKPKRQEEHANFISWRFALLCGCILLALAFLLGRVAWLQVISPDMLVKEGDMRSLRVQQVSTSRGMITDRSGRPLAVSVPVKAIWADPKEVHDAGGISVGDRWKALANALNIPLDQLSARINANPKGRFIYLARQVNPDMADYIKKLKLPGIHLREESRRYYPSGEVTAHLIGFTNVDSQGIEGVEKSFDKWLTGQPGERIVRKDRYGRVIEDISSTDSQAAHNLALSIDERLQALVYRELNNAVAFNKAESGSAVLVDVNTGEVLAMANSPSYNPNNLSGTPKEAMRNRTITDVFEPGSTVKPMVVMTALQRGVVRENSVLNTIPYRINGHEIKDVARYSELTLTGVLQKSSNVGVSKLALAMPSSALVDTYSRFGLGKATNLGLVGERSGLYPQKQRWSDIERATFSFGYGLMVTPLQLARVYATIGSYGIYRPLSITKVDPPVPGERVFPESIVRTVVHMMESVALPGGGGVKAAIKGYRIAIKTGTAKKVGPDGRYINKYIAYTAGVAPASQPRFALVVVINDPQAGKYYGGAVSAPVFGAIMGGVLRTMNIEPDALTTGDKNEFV
Excerpt: To determine the ability of boronic acid-based test PBP inhibitors to bind Penicillin Binding Proteins (PBPs), Bocillin-FL (fluorescently-labeled penicillin V; ThermoFisher Scientific) was used in a fluorescence polarization (FP) competition binding assay to assess boronic acid PBP inhibitor binding to PBP3 from Escherichia coli. PBP3 from Escherichia coli was cloned and purified as described previously (King, D. T, et al., ACS Infectious Diseases 2015, 1, 175-184). To establish assay conditions for competition binding, an enzyme titration/saturation binding experiment was performed. Bocillin-FL was prepared at […] in a buffer comprised of 50 mM Hepes (pH 8.0), 300 mM NaCl and 5% (v/v) glycerol. Saturation binding was performed by mixing […] of PBP3 ranging in concentrations from […] with 40 μl of the 0.2 μM Bocillin-FL solution, in individual wells of a black 384-well microplate. FP was measured immediately upon addition of PBP3 (Ex, Em), using a Cytation3 (BioTek) microplate reader and measured continuously for 60 minutes. […] The competition binding assay was validated using the beta-lactam ampicillin, with Bocillin-FL at a final concentration of 0.1 μM, PBP3 at a final concentration of 1.5 μM and concentrations of ampicillin from 0-1000 μM. PBP3 was incubated with ampicillin at different concentrations in a black 384-well microplate (Corning) for 30 minutes, then Bocillin-FL added and the FP immediately measured for 60 minutes. […] Binding assays for boronic acid PBP inhibitors were performed in an identical fashion. Representative results are shown in Table 3, where A represents a potency of >500 μM, B represents a potency between 30 μM and 500 μM inclusive, and C represents a potency of <30 μM. NT=Not Tested.

E. coli DH5α/pLBII = experiment: Broth microdilution MIC assay, empty vector control strain; type: cell-based; conditions: Escherichia coli, read-out: E. coli DH5α/pLBII Microbiological Activity (MIC)
Outline: as §2

Compound	MIC [1]	MIC (S. aureus ATCC 29213)	MIC [2]	EC50 [3]	MIC (E. coli DH5α/pLBII)
CC(C)CN1CCN(C(=O)NC(C(=O)N[C@H]2Cc3cccc(C(=O)O)c3OB2O)c2csc(N)n2)C(=O)C1=O (stereo partly drawn) [Example 66, (3R)-3-(2-(2-aminothiazol-4-yl)-2-(4-isobutyl-2,3-dioxopiperazine-1-carboxamido)acetamido)-2-hydroxy-3,4-dihydro-2H-benzo[e][1,2]oxaborinine-8-carboxylic acid]	< 64 µg/mL	64 to 128 µg/mL	32 to 64 µg/mL	30 to 500 µM	32 to 64 µg/mL
Nc1nc(C(NC(=O)N2CCN(O)C(=O)C2=O)C(=O)N[C@H]2Cc3cccc(C(=O)O)c3OB2O)cs1 (stereo partly drawn) [Example 72, (3R)-3-(2-(2-aminothiazol-4-yl)-2-(4-hydroxy-2,3-dioxopiperazine-1-carboxamido)acetamido)-2-hydroxy-3,4-dihydro-2H-benzo[e][1,2]oxaborinine-8-carboxylic acid]	< 64 µg/mL	64 to 128 µg/mL	128 to 256 µg/mL	30 to 500 µM	128 to 256 µg/mL
Nc1nc(C(NC(=O)N2CCN(Cc3ccccc3)C(=O)C2=O)C(=O)N[C@H]2Cc3cccc(C(=O)O)c3OB2O)cs1 (stereo partly drawn) [Example 49, (3R)-3-(2-(2-aminothiazol-4-yl)-2-(4-benzyl-2,3-dioxopiperazine-1-carboxamido)acetamido)-2-hydroxy-3,4-dihydro-2H-benzo[e][1,2]oxaborinine-8-carboxylic acid]	< 64 µg/mL	64 to 128 µg/mL	128 to 256 µg/mL	< 30 µM	128 to 256 µg/mL
CCN1CCN(C(=O)N[C@@H](C(=O)N[C@H]2Cc3cccc(C(=O)O)c3OB2O)c2ccccc2)C(=O)C1=O [Example 11, (R)-3-((R)-2-(4-ethyl-2,3-dioxopiperazine-1-carboxamido)-2-phenylacetamido)-2-hydroxy-3,4-dihydro-2H-benzo[e][1,2]oxaborinine-8-carboxylic acid]	< 64 µg/mL	64 to 128 µg/mL	32 to 64 µg/mL	< 30 µM	32 to 64 µg/mL
Nc1nc(C(NC(=O)N2CCN(CCF)C(=O)C2=O)C(=O)N[C@H]2Cc3cccc(C(=O)O)c3OB2O)c(Cl)s1 (stereo partly drawn) [Example 57, (3R)-3-(2-(2-amino-5-chlorothiazol-4-yl)-2-(4-(2-fluoroethyl)-2,3-dioxopiperazine-1-carboxamido)acetamido)-2-hydroxy-3,4-dihydro-2H-benzo[e][1,2]oxaborinine-8-carboxylic acid]	< 64 µg/mL	> 128 µg/mL	8 to 16 µg/mL	30 to 500 µM	8 to 16 µg/mL
CCCCN1CCN(C(=O)NC(C(=O)N[C@H]2Cc3cccc(C(=O)O)c3OB2O)c2csc(N)n2)C(=O)C1=O (stereo partly drawn) [Example 53, (3R)-3-(2-(2-aminothiazol-4-yl)-2-(4-butyl-2,3-dioxopiperazine-1-carboxamido)acetamido)-2-hydroxy-3,4-dihydro-2H-benzo[e][1,2]oxaborinine-8-carboxylic acid]	< 64 µg/mL	64 to 128 µg/mL	32 to 64 µg/mL	< 30 µM	32 to 64 µg/mL
CCCCCCN1CCN(C(=O)NC(C(=O)N[C@H]2Cc3cccc(C(=O)O)c3OB2O)c2csc(N)n2)C(=O)C1=O (stereo partly drawn) [Example 93, (3R)-3-(2-(2-aminothiazol-4-yl)-2-(4-hexyl-2,3-dioxopiperazine-1-carboxamido)acetamido)-2-hydroxy-3,4-dihydro-2H-benzo[e][1,2]oxaborinine-8-carboxylic acid]	< 64 µg/mL	64 to 128 µg/mL	128 to 256 µg/mL	< 30 µM	
CCN1CCN(C(=O)NCCN2CCN(C(=O)NC(C(=O)N[C@H]3Cc4cccc(C(=O)O)c4OB3O)c3csc(N)n3)C(=O)C2=O)C(=O)C1=O (stereo partly drawn) [Example 92, (3R)-3-(2-(2-aminothiazol-4-yl)-2-(4-(2-(4-ethyl-2,3-dioxopiperazine-1-carboxamido)ethyl)-2,3-dioxopiperazine-1-carboxamido)acetamido)-2-hydroxy-3,4-dihydro-2H-benzo[e][1,2]oxaborinine-8-carboxylic acid]	< 64 µg/mL	> 128 µg/mL	128 to 256 µg/mL	30 to 500 µM	

— US11332485B2, “Penicillin-binding protein inhibitors” (priority 2017, dated 2022)
